Data reported in US8466111B2, “Cyclopenta{G}quinazoline derivatives for the treatment of rheumatoid arthritis or acute myeloid leukaemia” (BTG International Limited, priority 2008, dated 2013).
Like-named read-outs stand apart in the source and are kept apart here.

Assays:
CHO/FR-β cells = assay: Cell proliferation inhibition, CHO-FR-β cells; assay type: cell-based, Chinese Hamster; details: for Effect of addition of folic acid on growth inhibitory activity: 1 μM folic acid to block FR
Description: (§1) Cell proliferation inhibition assay CHO-WT and CHO-FRβ cells were seeded in individual wells of a 24-well tissue culture plate at a density of 1×10^4/cm^2. […] After 72 hours incubation, cells were harvested by trypsinization and counted for cell viability as described before. See Mol. Pharmacol. 1999; 55(4): 761-769 (Jansen et al.).

FR-β = biological target: T1, FR-β (Homo sapiens, UniProt P14207); assay: Intact cell competitive binding of [3H]-folic acid to FR-β (CHO-β cells); details: for FR-β binding affinity relative to folic acid: [3H]-folic acid displacement, 10 min at 4° C.
T1 construct: expressed in transfected cells; host or cells: Chinese Hamster Ovary cells (CHO-β / CHO-FR-β)
Description: (§2) An intact cell binding assay for competitive binding of [^3H]-folic acid and novel anti-folate drugs to FR-β and FR-α was performed essentially as described previously. See Mol. Pharmacol. 1995; 48: […] and Cancer Res. 1995; 55(17): 3795-3802 (both Westerhof et al.). Briefly, CHO-β cells (FR-β transfected Chinese Hamster Ovary cells) and KB cells (FR-α expressing cells) were detached by incubation in PBS+1 mM EDTA. Detached cells were suspended in ice-cold HEPES-buffered saline (140 mM NaCl, 20 mM HEPES, 6 mM KCl, 2 mM MgCl2, 6 mM D-glucose, pH 7.4 with NaOH) to a cell concentration of 3×10^6 and 1×10^6 cells/ml, respectively. One ml of cell suspension was added to a series of Eppendorf tubes containing […] [^3H]-folic acid (specific radioactivity: 2,000 dpm/μmol) in the absence or presence of increasing concentrations of natural folate or folate antagonists. Following 10 minutes at 4° C., cells were centrifuged in an Eppendorf centrifuge (30 s, 10,000 rpm), the supernatant was aspirated and cell pellets were resuspended in 200 μl water and analysed for radioactivity (Optima Gold scintillation fluid, United Technologies, Packard, Brussels, Belgium). Non-specific binding of [^3H] […] For comparison, data for affinities of the RFC for natural folates and folate antagonists were presented from previous studies. See. Mol Pharmacol 1995; 48: 459-471 Westerhof et al.) and Cancer Res. 2005; 65(24): 11721-11728 (Gibbs et al.).

[1] = biological target: T2, RFC (reduced folate carrier) (Homo sapiens, UniProt P41440); details: cited from earlier work
T2 sequence (P41440 1-591): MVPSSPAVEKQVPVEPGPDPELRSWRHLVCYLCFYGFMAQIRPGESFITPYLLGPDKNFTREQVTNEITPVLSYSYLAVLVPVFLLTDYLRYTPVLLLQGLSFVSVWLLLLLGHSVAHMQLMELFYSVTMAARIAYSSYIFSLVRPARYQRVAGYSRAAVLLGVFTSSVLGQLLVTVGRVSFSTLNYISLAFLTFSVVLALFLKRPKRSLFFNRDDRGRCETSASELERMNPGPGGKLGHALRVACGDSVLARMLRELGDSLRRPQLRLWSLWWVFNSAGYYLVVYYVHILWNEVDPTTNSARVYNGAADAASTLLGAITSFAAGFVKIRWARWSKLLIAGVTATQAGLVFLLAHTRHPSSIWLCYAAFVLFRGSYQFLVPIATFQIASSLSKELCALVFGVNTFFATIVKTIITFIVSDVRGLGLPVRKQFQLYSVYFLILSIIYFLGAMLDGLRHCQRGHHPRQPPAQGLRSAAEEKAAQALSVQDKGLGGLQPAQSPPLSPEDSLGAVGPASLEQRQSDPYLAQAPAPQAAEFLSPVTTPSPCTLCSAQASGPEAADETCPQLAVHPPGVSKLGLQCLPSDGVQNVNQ

CHO/WT cells = assay: Cell proliferation inhibition, CHO-WT cells; assay type: cell-based, Chinese Hamster; details: 72 hours
Description: as §1

[2] = test system: human monocytic-macrophage THP1 cells; assay: Cell proliferation inhibition, THP1 cells; assay type: cell-based; details: read-out: Growth inhibitory effects, IC50
Description: In other experiments human monocytic-macrophage THP1 cells were tested for antiproliferative effects of folate antagonists. To this end, 1 ml of cell suspension containing 1.25×10^5 cells were plated in individual wells of a 24-well tissue culture plate and incubated with 8 concentrations (with 2.5-fold increments) of folate antagonist drugs. After 72 hours drug exposure cell counts were performed with a haemocytometer and viability was checked by trypan blue exclusion.

FR-α = biological target: T3, FR-α (Homo sapiens, UniProt P15328); assay: Intact cell competitive binding of [3H]-folic acid to FR-α (KB cells); details: FRα (KB) versus FR-β (CHO-β)
T3 construct: KB cells (FR-α expressing cells); host or cells: KB cells
Description: as §2, with “Mol Pharmacol 1995; 48: 459-471 Westerhof et al.) and Cancer Res. 2005; 65(24): 11721-11728 (Gibbs et al.).” left out

[3] = test system: macrophages (3A5) in synovial sublining layer; assay: Synovial tissue immunohistochemistry of RA patients treated with MTX; assay type: in vivo, human; details: after 4 months of MTX, 219 before treatment, p=0.14
Description: In this study we analysed synovial tissue biopsies derived from the knee joints of 15 RA-patients with active disease before treatment and after 4 months of treatment with MTX (starting dose of MTX: 7.5 mg/week; increasing stepwise to 15 mg/week over 12 weeks). Active disease was defined as ≧6 swollen or tender joints and levels of moderate or worse on the physician's and patient's assessments of disease activity (Disease Activity Score-28; DAS-28). All patients had at least 1 clinically involved knee joint. Low dose prednisone (<10 mg/day) and concomitant stable doses of nonsteroidal anti-inflammatory drug (NSAID) treatment were allowed. None of the patients ever used MTX before enrolling the study. In patients taking other DMARDs, the treatment was terminated following a washout phase of 28 days. […]
Immunohistochemical staining of cryostat sections (4 μm) of synovial tissue biopsies from RA patients and controls was performed using a 3-step immunoperoxidase method as described previously. […] Stained sections were analysed for FR-β, 3A5 and CD3 expression by digital image analysis, as described previously. […] Positive cells were evaluated by analysing 18 consecutive hpfs, scoring numbers of positive cells in the intimal lining layer and the synovial sublining per mm^2.

T1 sequence (P14207 17-230): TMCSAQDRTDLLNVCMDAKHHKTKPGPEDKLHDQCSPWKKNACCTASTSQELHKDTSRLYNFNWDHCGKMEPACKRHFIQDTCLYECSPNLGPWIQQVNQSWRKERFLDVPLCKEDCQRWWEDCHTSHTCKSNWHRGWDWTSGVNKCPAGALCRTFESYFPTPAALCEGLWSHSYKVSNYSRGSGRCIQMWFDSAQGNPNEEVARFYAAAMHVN
T3 sequence (P15328 25-234): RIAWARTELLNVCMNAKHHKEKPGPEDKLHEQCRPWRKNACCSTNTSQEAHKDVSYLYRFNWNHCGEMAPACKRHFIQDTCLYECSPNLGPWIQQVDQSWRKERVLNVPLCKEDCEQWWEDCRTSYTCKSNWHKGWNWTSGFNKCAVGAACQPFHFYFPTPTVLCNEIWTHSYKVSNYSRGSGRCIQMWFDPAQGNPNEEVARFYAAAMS

Row | FR-β binding affinity (FR-β) | IC50 ([2]; Homo sapiens, THP-1, 72 h) [nM] | Compound | FR-β binding affinity relative to folic acid (FR-β) | also measured
1 | relatively high binding affinity | 4850 ± 285 | C#CN(Cc1cc2c(=O)[nH]c(N)nc2cc1C)c1ccc(C(=O)N[C@@H](CCC(=O)CN[C@H](CCCC(=O)O)C(=O)O)C(=O)O)c(F)c1 [CB300635] | 161 % of folic acid | Effect of addition of folic acid on growth inhibitory activity (CHO/FR-β cells): abrogated activity; Growth inhibition of CHO/FR-β cells (CHO/FR-β cells; 72 hours): not markedly potent; Affinity for RFC [1]: poor affinity for RFC
2 | relatively high binding affinity | 1.6 ± 0.1 | Cc1nc2ccc3ccc(CNc4ccc5c(c4)CN([C@@H](CCC(=O)O)C(=O)O)C5=O)cc3c2c(=O)[nH]1 [GW1843] | – | –
3 | affinity comparable to MTX | 1 ± 0.4 | Cc1c(CNc2ccc(C(=O)N[C@@H](CCCNC(=O)c3ccccc3C(=O)O)C(=O)O)cc2)cnc2nc(N)nc(N)c12 [PT644] | – | –

More lines, now with the values behind:

Row | Compound | FR-β binding affinity (FR-β) | IC50 ([2]; Homo sapiens, THP-1, 72 h) [nM] | FR-β binding affinity relative to folic acid (FR-β) | also measured
4 | C#CCN(c1ccc(C(=O)N[C@@H](CCC(=O)N[C@H](CCC(=O)O)C(=O)O)C(=O)O)cc1)C1CCc2cc3nc(CO)[nH]c(=O)c3cc21 (mixture of isomers) [BGC 945] | relatively high binding affinity | 3630 ± 350 | 89 % of folic acid | Effect of addition of folic acid on growth inhibitory activity (CHO/FR-β cells): completely abrogated; Concentration inducing growth inhibition of CHO/FR-β cells (CHO/FR-β cells; 72 hours): 10 to 50 nM; Differential in activity between control CHO cells and FR-β transfected cells (CHO/FR-β cells; CHO/WT versus CHO/FR-β): largest differential in activity; Affinity for RFC [1]: poor affinity for RFC; Extracellular concentration inducing growth inhibition of CHO/WT cells (CHO/WT cells): > 1000 nM
5 | C#CCN(c1ccc(C(=O)N[C@@H](CCC(=O)N[C@H](CCC(=O)O)C(=O)O)C(=O)O)cc1)[C@H]1CCc2cc3nc(CO)[nH]c(=O)c3cc21 [(6S)-BGC 945] | – | – | 46 % of folic acid | –
6 | Nc1nc2c(c(=O)[nH]1)SC(CCc1ccc(C(=O)N[C@@H](CCC(=O)O)C(=O)O)s1)CN2 (stereo partly shown) [AG2034] | moderate to high binding affinities | 3.2 ± 0.2 | 54 % of folic acid | Abrogation of growth inhibitory effects by FR-β blocking (folic acid) and RFC blocking (LV) (CHO/FR-β cells; folic acid 1 μM or leucovorin 20 nM, CHO/WT and CHO/FR-β): only partial; FRα binding affinity, fold higher than FR-β (FR-α): 2.5 fold; Growth inhibition of CHO/WT cells (CHO/WT cells): displayed a growth inhibitory potential
7 | C#CCN(Cc1cc2c(=O)[nH]c(C)nc2cc1C)c1ccc(C(=O)N[C@@H](CCc2nn[nH]n2)C(=O)O)c(F)c1 [BGC 9331] | – | 8.7 ± 0.8 | – | –
8 | Nc1nc2c(c(=O)[nH]1)CC(CCc1ccc(C(=O)N[C@@H](CCC(=O)O)C(=O)O)cc1)CN2 (stereo partly shown) [DDATHF, 5,10-dideazatetrahydrofolate] | moderate to high binding affinities | 9.8 ± 0.8 | 27 % of folic acid | FRα binding affinity, fold higher than FR-β (FR-α): 2.5 fold
9 | CN(Cc1cnc2nc(N)nc(N)c2n1)c1ccc(C(=O)N[C@@H](CCC(=O)O)C(=O)O)cc1 [MTX, methotrexate] | – | 7.1 ± 0.5 | – | FR-β binding affinity, fold lower than for folic acid (FR-β): approximately 50 fold; Median numbers of macrophages after MTX treatment [3]: 119 positive cell counts in the synovial sublining layer/mm^2
10 | Nc1nc(N)c2nc(CNc3ccc(C(=O)N[C@@H](CCCNC(=O)c4ccccc4C(=O)O)C(=O)O)cc3)cnc2n1 [PT523] | – | 2.2 ± 0.3 | 0.3 % of folic acid | –
11 | Cc1nc2ccc(CN(C)c3ccc(C(=O)N[C@@H](CCC(=O)O)C(=O)O)s3)cc2c(=O)[nH]1 [Raltitrexed] | – | 2.4 ± 0.5 | – | –
12 | Pemetrexed | – | – | – | IC50 ([2]; RPMI-1640 with 2.2 μM folic acid, 72 hours drug exposure, mean ± S.D. of 3 experiments): 10.7 ± 2.2 nM
